For experiment [1], the target named is T1, BACE1 (Homo sapiens, UniProt P56817). Briefly: Cellular Abeta-lowering assay. The note with it: HEK293 cells stably transfected with human APP wt (APP695), Aβ40 ELISA of supernatant after 18-20 hrs. The arrangement: endogenous in cells; host or cells: HEK293 stably transfected with human APP695 wt. The experiment is classed as cell-based.
Experiment [2] addresses T2, BACE2 (Homo sapiens, UniProt Q9Y5Z0).
T2 construct: BACE2 enzyme ectodomain (derived from plasmid “pET17b-T7-hu proBACE2”); T7 (N); made in house
T2 sequence (Q9Y5Z0 63-473 limits assumed): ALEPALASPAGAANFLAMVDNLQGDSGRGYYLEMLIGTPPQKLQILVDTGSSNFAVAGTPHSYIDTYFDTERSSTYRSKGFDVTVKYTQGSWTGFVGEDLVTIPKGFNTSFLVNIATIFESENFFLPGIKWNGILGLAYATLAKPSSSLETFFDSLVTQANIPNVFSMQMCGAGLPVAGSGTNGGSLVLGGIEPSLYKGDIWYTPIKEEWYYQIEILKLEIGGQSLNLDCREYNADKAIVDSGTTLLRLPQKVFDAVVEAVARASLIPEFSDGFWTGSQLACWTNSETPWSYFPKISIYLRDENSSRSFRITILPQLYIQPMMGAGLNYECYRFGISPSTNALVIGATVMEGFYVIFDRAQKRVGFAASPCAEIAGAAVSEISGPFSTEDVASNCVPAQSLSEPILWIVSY
Briefly: Assay A: binding studies using SPR based methods, immobilised BACE2. As to conditions: CM5 chip, immobilised BACE2 enzyme ectodomain, acetate buffer pH 4.6, 4% DMSO. On the technique in general: In SPR one partner is held on a chip, and binding of the other changes the refractive index at the surface.

The target of experiment [3] is T1, BACE1. Nature of the experiment: Assay A: binding studies using SPR based methods, immobilised BACE1.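 Note: KD from a 1:1 kinetic fit (koff/kon) of real-time association and dissociation curves, or for fast binders from end-of-association equilibrium responses plotted against log concentration.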 Further details: 6his-tagged full length BACE 1 expressed in SF9 cells; 6His; made in house; host or cells: SF9 insect cells. The note with it: CM5 chip, immobilised 6his-tagged full length BACE 1, acetate buffer pH 4.6, 4% DMSO.

Consider ten molecules from patent publication US20130196984A1, “3-AMINO-5-PHENYL-56-DIHYDRO-2H-[1,4]OXAZINES” (Siena Biotech S.p.A., priority 2009, published 2013).

By IC50 is commonly meant the point on the concentration scale where inhibition reaches its midpoint. Low values mean inhibition by little substance, high ones a need for much substance. For orientation: Kd means the concentration at which binding is half-saturated. A lower Kd goes with higher affinity.

Molecules are shown by their SMILES. Structures can show the parent of a compound that is named as a salt. A value given as a limit tells only on which side of the number the result lay.

T1 sequence (P56817 46-501): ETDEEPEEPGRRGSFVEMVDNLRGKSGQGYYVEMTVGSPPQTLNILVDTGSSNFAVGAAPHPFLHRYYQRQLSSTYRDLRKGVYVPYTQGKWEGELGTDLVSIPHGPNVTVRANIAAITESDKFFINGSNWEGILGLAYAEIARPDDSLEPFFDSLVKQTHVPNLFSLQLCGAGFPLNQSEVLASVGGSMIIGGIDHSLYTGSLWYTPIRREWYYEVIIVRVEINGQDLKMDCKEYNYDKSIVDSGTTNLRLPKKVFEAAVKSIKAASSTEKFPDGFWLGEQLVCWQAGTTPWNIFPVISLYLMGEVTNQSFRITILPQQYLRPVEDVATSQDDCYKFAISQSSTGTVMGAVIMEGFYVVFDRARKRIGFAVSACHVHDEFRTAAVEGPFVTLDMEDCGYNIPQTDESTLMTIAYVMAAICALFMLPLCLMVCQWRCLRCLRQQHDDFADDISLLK

Molecule `CC1(c2cccc(NC(=O)c3ccncn3)c2)COCC(N)=N1` (racemic) [Example 63, pyrimidine-4-carboxylic acid [3-((RS)-5-amino-3-methyl-3,6-dihydro-2H-[1,4]oxazin-3-yl)-phenyl]-amide] registered a concentration for half-maximal inhibition (IC50) in experiment [1] of 0.51 µM. The Kd in experiment [2] is 1.09 µM; in experiment [3], 3.06 µM.

In turn, `CC1(c2cccc(NC(=O)c3ccc(OCc4ccccc4)cn3)c2)COCC(N)=N1` (racemic) [Example 66, 5-benzyloxy-pyridine-2-carboxylic acid [3-((RS)-5-amino-3-methyl-3,6-dihydro-2H-[1,4]oxazin-3-yl)-phenyl]-amide hydrochloride] came in with an IC50 in experiment [1] of 0.68 µM. The values for the Kd in experiment [2] and in experiment [3] were 0.159 µM and 0.173 µM, respectively.

As for `CC1(c2cccc(NC(=O)c3ccc(OCCF)cn3)c2)COCC(N)=N1` (racemic) [Example 61, 5-(2-fluoro-ethoxy)-pyridine-2-carboxylic acid [3-((RS)-5-amino-3-methyl-3,6-dihydro-2H-[1,4]oxazin-3-yl)-phenyl]-amide hydrochloride], the IC50 in experiment [1] was 0.39 µM. Further, the Kd was determined as 4.68 µM in experiment [2] and 0.44 µM in experiment [3].

Take `CCCCc1ccc(C(=O)Nc2cccc(C3(C)COCC(N)=N3)c2)nc1` (racemic) [Example 32, 5-butyl-pyridine-2-carboxylic acid [3-((RS)-5-amino-3-methyl-3,6-dihydro-2H-[1,4]oxazin-3-yl)-phenyl]-amide hydrochloride]: it took 0.67 µM to reach half-maximal inhibition in experiment [1] (IC50). The Kd in experiment [2] amounted to 20 µM; in experiment [3], 4.2 µM.

Turning to `CC1(c2cc(NC(=O)c3ccc(-c4ccco4)cn3)ccc2F)COCC(N)=N1` (racemic) [Example 76, 5-furan-2-yl-pyridine-2-carboxylic acid [3-((RS)-5-amino-3-methyl-3,6-dihydro-2H-[1,4]oxazin-3-yl)-4-fluoro-phenyl]-amide], it took 0.015 µM to reach half-maximal inhibition in experiment [1] (IC50). Further, the figures for the dissociation constant (Kd) in experiment [2] and in experiment [3] were 0.988 µM and 0.093 µM, respectively.

On to `CC1(c2cc(NC(=O)c3ccc(-c4cnco4)cc3)ccc2F)COCC(N)=N1` (racemic) [Example 52, (RS)—N-[3-(5-amino-3-methyl-3,6-dihydro-2H-[1,4]oxazin-3-yl)-4-fluoro-phenyl]-4-oxazol-5-yl-benzamide], for which inhibition in experiment [1] was half-maximal at 1.18 µM (IC50). The results for the Kd in experiment [2] and in experiment [3] were > 10 µM and 0.194 µM, respectively.

In turn, `CC1(c2cccc(NC(=O)c3ncc(C(F)(F)F)cc3Cl)c2)COCC(N)=N1` (racemic) [Example 33, 3-Chloro-5-trifluoromethyl-pyridine-2-carboxylic acid [3-((RS)-5-amino-3-methyl-3,6-dihydro-2H-[1,4]oxazin-3-yl)-phenyl]-amide] came in with an IC50 in experiment [1] of 0.026 µM. The dissociation constant Kd in experiment [2] is 0.141 µM; in experiment [3] it was 0.077 µM.

Take `CC1(c2cccc(NC(=O)c3cnccn3)c2)COCC(N)=N1` (racemic) [Example 25, (RS)-Pyrazine-2-carboxylic acid [3-(5-amino-3-methyl-3,6-dihydro-2H-[1,4]oxazin-3-yl)phenyl]-amide hydrochloride]: the IC50 in experiment [1] was determined as 0.41 µM. Moreover, the Kd in experiment [2] was 1.22 µM; in experiment [3] it was 4.17 µM.

`C[C@@]1(c2cc(NC(=O)c3ccc(C#N)cc3F)ccc2F)COCC(N)=N1` [Example 42, N-[3-((R)-5-amino-3-methyl-3,6-dihydro-2H-[1,4]oxazin-3-yl)-4-fluoro-phenyl]-4-cyano-2-fluoro-benzamide] registered an IC50 in experiment [1] of 0.19 µM. Moreover, the Kd in experiment [2] came out at 2.55 µM; in experiment [3], 0.208 µM.

As for `Cc1nc(C(=O)Nc2cccc(C3(C)COCC(N)=N3)c2)c(C)o1` (racemic) [Example 11, (RS)-2,5-dimethyl-oxazole-4-carboxylic acid [3-(5-amino-3-methyl-3,6-dihydro-2H-[1,4]oxazin-3-yl)-phenyl]-amide], the midpoint of inhibition in experiment [1], the IC50, lay at 0.041 µM. Moreover, the values for the Kd in experiment [2] and in experiment [3] were 0.044 µM and 0.49 µM, respectively.
